Test results published in US7005425B2, “Method for treating arrhythmias” (CV Therapeutics, Inc., priority 2002, dated 2006).

Columns and labels:
[1] = cited from earlier work
[2] = system: awake rats; assay: Telemetry studies of heart rate in awake rats; assay type: in vivo, Rats (Sprague Dawley)
Description: Rats (Sprague Dawley) weighing 300–400 gms were purchased from Simonsen laboratories. CVT-3619 was dissolved in DMSO and further diluted in saline. CVT-510 was dissolved in saline. Ketamine was purchased from Fort Dodge Animal Health, Xylazine from Bayer and Acepromazine Maleate from Fermenta Animal Health Co. Metoprolol and propranolol were purchased from SIGMA. Esmolol was obtained from a local pharmacy.
For these studies, rats were instrumented with radiotelemetered transmitters (Data Sciences) at least 3 weeks prior to experimentation. Animals were anesthetized by peritoneal injection of a “cocktail” (1 ml/kg) containing Ketamine (75 mg/ml), Xylazine (5 mg/ml), and Acepromazine (1 mg/ml). After 20–30 minutes of induction of anesthesia, a midline laparotomy was performed. The transmitter for recordings of ECG, blood pressure and body temperature was placed in the abdominal cavity, and secured to the abdominal muscles. Two electrocardiographic leads were tunneled through the subcutaneous—one toward the upper left shoulder and the other to the right thigh, and secured with sutures. A fluid filled sensor catheter was inserted in the descending aorta above the iliac bifurcation for measurement of blood pressure. The tip of the telemetry catheter was located in the abdominal aorta just caudal to the renal arteries. Once the transmitter and leads were in place and determined to be functioning properly, the abdominal wall was sutured. After recovery from anesthesia, the rats were housed individually in cages placed on their respective receivers. The ECG, blood pressure and temperature were recorded and heart rate measured by a Dataquest ART Gold system (Version 2.2; Data Sciences Intl). The system consisted of a transmitter, i.e., biopotential sensor (Model TL11M2-C50-PXT), receivers (Model RPC-1), a consolidation matrix (BCM 100), a personal computer (Compaq DeskPro Series 3574) and Dataquest 4 software. Heart rate, blood pressure and temperature were measured at 5-minute intervals. Each recording lasted 10 seconds and all cardiac cycles within this period were averaged. Animals were given various drugs in a randomized manner after recording the baseline data for at least two hours.
A subgroup of animals was implanted with osmotic pumps containing CVT-510 for combination experiments. […]
The slowing of heart rate caused by each treatment was quantified by determining the area under the curve (AUC), using the trapezoidal method for calculations. Data used for analysis was the area under/over the curve calculated using change form baseline data (untreated animals). The data was analyzed for the magnitude as well as the duration of bradycardia caused by each treatment. […]

[3] = system: anesthetized guinea pigs; assay: PR interval (AV nodal conduction) in anesthetized, paced guinea pigs; assay type: in vivo; conditions: metoprolol 0.1 mg/kg iv bolus
Source text: Male guinea pigs weighing 400–450 gm were obtained from Simonsen labs and housed in the institutional laboratory animal facility. Animals were anesthetized with isoflurane in the anesthetizing chamber. After determining (by toe pinch) that the animal is adequately anesthetized, the animals was intubated with an endotracheal tube and ventilated with isoflurane and oxygen mixture using anesthesia workstation. Using sterile equipment and aseptic technique, the right carotid artery was exposed and a catheter inserted for recording of blood pressure (BP). A quadripolar electrode catheter was introduced via the right jugular vein and positioned in the right atrium and ventricle for atrial and ventricular pacing. The hearts were paced at a constant rate (330–360 bpm) to eliminate the effect of heart rate variability between animals. Another catheter was inserted into the left jugular vein and positioned in the right atrium for the administration of drugs and saline. Subcutaneous needles were used as standard electrocardiographic leads to record the electrocardiogram (ECG). After completion of surgery and instrumentation, a 20 min equilibration period was allowed before beginning the experimental protocol. […] When the two agents were given in combination the PR interval was increased up to 15 msec. […] Esmolol was administered at three different infusion rates. […]

SMILES: Nc1ncnc2c1ncn2[C@@H]1O[C@H](CO)[C@@H](O)[C@H]1O [Adenosine]
- half-life [1]: ~10 s

SMILES: O[C@@H]1[C@@H](CSc2ccccc2F)OC(n2cnc3c(N[C@@H]4CCC[C@H]4O)ncnc32)[C@@H]1O (stereo partly drawn) [CVT-3619, 2-{6-[((1R,2R)-2-hydroxycyclopentyl)amino]purin-9-yl}(4S,5S,3R)-5-[(2-fluorophenylthio)methyl]oxolane-3,4-diol]
- effect on heart rate (FIG. 1) ([2]; CVT-3619 0.5 mg/kg ip alone): minimal effect on heart rate

SMILES: COC(=O)CCc1ccc(OCC(O)CNC(C)C)cc1 (stereo not shown) [esmolol, reference compound]
- effect on heart rate (FIG. 3) ([2]; esmolol 10 mg/kg ip alone, heart rate increase caused by handling): only slightly reduces the increase in heart rate

SMILES: COCCc1ccc(OCC(O)CNC(C)C)cc1 (stereo not shown) [metoprolol, reference compound]
- increase of PR interval (FIG. 9) [3]: 5 ms
